Experimental data from US10487146B2, “Oxidized LDL as a biomarker for neurological complications of pregnancy” (The University of Vermont and State Agricultural College, priority 2012, dated 2019).
Entries after “also recorded” stand apart in the source; their conditions may differ.

System: cerebral vein of Galen from NonP rats
Assay: BBB permeability (hydraulic conductivity, Lp) in isolated cerebral veins perfused with human plasma
Design: species or system rat
Procedure: BBB permeability measurements. The first set of experiments was performed to determine the effects of circulating factors in plasma from EPE and LPE women on the BBB permeability compared to NP women and NonP women. We measured Lp, the critical transport parameter that relates water flux to hydrostatic pressure, in isolated cerebral veins from nonpregnant female rats after perfusing with plasma from the 4 groups of women, as described previously (52). This method of measuring BBB permeability was specifically developed to have a direct measure of water permeability and has been successfully used in several previous studies (13, 52-54).
The vein of Galen was used for all permeability experiments as representation of the BBB because this vein has BBB properties and is where BBB disruption occurs first during acute hypertension (55). […] After this incubation period with plasma, intravascular pressure was increased to 25±0.1 mmHg and the drop in pressure due to transvascular filtration of water out of the vessel in response to hydrostatic pressure was measured for 40 minutes. […] After flux was determined, transvascular filtration per surface area (Jv/S) and Lp were calculated by normalizing flux to the surface area and oncotic pressure of the plasma perfusate that was determined by a commercially available oncometer. […]

## C[n+]1ccc(-c2c3nc(c(-c4cc[n+](C)cc4)c4ccc([n-]4)c(-c4cc[n+](C)cc4)c4nc(c(-c5cc[n+](C)cc5)c5ccc2[n-]5)C=C4)C=C3)cc1.[Cl-].[Cl-].[Cl-].[Cl-].[Cl-].[Fe+3] [FeTMPyP, Fe(III)tetrakis (1-methyl-4-pyridyl) porphyrin pentachlorideporphyrin pentachloride]
EPE plasma plus 50 μM FeTMPyP
  effect on BBB permeability (Lp at 36 minutes) induced by plasma from EPE women: significantly inhibited BBB permeability; also recorded: inhibited the BBB permeability induced by plasma from EPE women
NonP plasma plus 3.5 μg/ml oxLDL and 50 μM FeTMPyP
  effect on BBB permeability (Lp) induced by exogenous oxLDL: inhibited the BBB permeability induced by 3.5 μg/ml exogenous oxLDL
